# Reference: ChEMBL document CHEMBL1201862, “PubChem BioAssay data set” (2004)
#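 Results reflect a 48-hour exposure of cells in 96-well plates to compound at five concentrations. GI50 marks 50% less growth.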 Calls of active or inactive are those of the source. Rule as the data show it: active = GI50 up to about 1.1 µM and inactive = higher.
# Key:
# Assay in all cases: inhibition of tumour cell growth, NCI panel, 48 h
# SK-MEL-5 = test system: SK-MEL-5
# 786-0 = test system: 786-0
# NCI-H23 = test system: NCI-H23
# A498 = test system: A498
# NCI-H226 = test system: NCI-H226
# MDA-MB-231 = test system: MDA-MB-231
# IGROV-1 = test system: IGROV-1
# Hs-578T = test system: Hs-578T
# CCRF-CEM = test system: CCRF-CEM
# TK-10 = test system: TK-10
# SNB-75 = test system: SNB-75
# EKVX = test system: EKVX
# OVCAR-5 = test system: OVCAR-5
# SK-MEL-28 = test system: SK-MEL-28
# SK-OV-3 = test system: SK-OV-3
# UO-31 = test system: UO-31
# M14 = test system: M14
# ACHN = test system: ACHN
# MDA-MB-435 = test system: MDA-MB-435
# SN12C = test system: SN12C
# COLO 205 = test system: COLO 205
# HOP-92 = test system: HOP-92
# SK-MEL-2 = test system: SK-MEL-2
# SNB-19 = test system: SNB-19
# SF-539 = test system: SF-539
# NCI-H460 = test system: NCI-H460
# NCI-H522 = test system: NCI-H522
# HT-29 = test system: HT-29
# Malme-3M = test system: Malme-3M
# UACC-62 = test system: UACC-62
# DU-145 = test system: DU-145
# CAKI-1 = test system: CAKI-1
# MDA-N = test system: MDA-N
# SF-268 = test system: SF-268
# A549 = test system: A549
# SF-295 = test system: SF-295
# UACC-257 = test system: UACC-257
# BT-549 = test system: BT-549
# RXF 393 = test system: RXF 393
# HCT-15 = test system: HCT-15
# HOP-62 = test system: HOP-62
# MCF7 = test system: MCF7
# OVCAR-3 = test system: OVCAR-3
# SW-620 = test system: SW-620
# MOLT-4 = test system: MOLT-4
# K562 = test system: K562
# T47D = test system: T47D
# RPMI-8226 = test system: RPMI-8226
# KM12 = test system: KM12
# HCT-116 = test system: HCT-116
# NCI/ADR-RES = test system: NCI/ADR-RES
# SR = test system: SR
# PC-3 = test system: PC-3
# U-251 = test system: U-251
# LOX IMVI = test system: LOX IMVI
# OVCAR-8 = test system: OVCAR-8
# HCC 2998 = test system: HCC 2998
# OVCAR-4 = test system: OVCAR-4
# HL-60 = test system: HL-60
smiles,measurement,setting,value
Cc1cc2nc3c(N)nn(CCN(C)C)c3nc2cc1C,GI50,SK-MEL-5,24.6 µM (inactive)
same,GI50,786-0,40.1 µM (inactive)
same,GI50,NCI-H23,38.2 µM (inactive)
same,GI50,A498,38.3 µM (inactive)
same,GI50,NCI-H226,11.2 µM (inactive)
same,GI50,MDA-MB-231,33.8 µM (inactive)
same,GI50,IGROV-1,27 µM (inactive)
same,GI50,Hs-578T,40.2 µM (inactive)
same,GI50,CCRF-CEM,42.3 µM (inactive)
same,GI50,TK-10,41.4 µM (inactive)
same,GI50,SNB-75,27.4 µM (inactive)
same,GI50,EKVX,58.7 µM (inactive)
same,GI50,OVCAR-5,52 µM (inactive)
same,GI50,SK-MEL-28,53.7 µM (inactive)
same,GI50,SK-OV-3,45.2 µM (inactive)
same,GI50,UO-31,29 µM (inactive)
same,GI50,M14,61.2 µM (inactive)
same,GI50,ACHN,28.4 µM (inactive)
same,GI50,MDA-MB-435,37.9 µM (inactive)
same,GI50,SN12C,36.7 µM (inactive)
same,GI50,COLO 205,28.1 µM (inactive)
same,GI50,HOP-92,38.5 µM (inactive)
same,GI50,SK-MEL-2,39 µM (inactive)
same,GI50,SNB-19,40.7 µM (inactive)
same,GI50,SF-539,28.1 µM (inactive)
same,GI50,NCI-H460,32.8 µM (inactive)
same,GI50,NCI-H522,40.1 µM (inactive)
same,GI50,HT-29,27.4 µM (inactive)
same,GI50,Malme-3M,34.2 µM (inactive)
same,GI50,UACC-62,39.5 µM (inactive)
same,GI50,DU-145,40.8 µM (inactive)
same,GI50,CAKI-1,39.3 µM (inactive)
same,GI50,MDA-N,50.8 µM (inactive)
same,GI50,SF-268,38.5 µM (inactive)
same,GI50,A549,31.9 µM (inactive)
same,GI50,SF-295,78.7 µM (inactive)
same,GI50,UACC-257,41.7 µM (inactive)
same,GI50,BT-549,57.9 µM (inactive)
same,GI50,RXF 393,30.4 µM (inactive)
same,GI50,HCT-15,36.4 µM
same,GI50,HOP-62,26.4 µM (inactive)
same,GI50,MCF7,29.2 µM (inactive)
same,GI50,OVCAR-3,55 µM (inactive)
same,GI50,SW-620,38.7 µM (inactive)
same,GI50,MOLT-4,41.8 µM (inactive)
same,GI50,K562,83.4 µM (inactive)
same,GI50,T47D,42.3 µM (inactive)
same,GI50,RPMI-8226,63.7 µM (inactive)
same,GI50,KM12,45.5 µM (inactive)
same,GI50,HCT-116,33.1 µM (inactive)
same,GI50,NCI/ADR-RES,33.3 µM (inactive)
same,GI50,SR,> 100 µM (inactive)
same,GI50,PC-3,44.3 µM (inactive)
same,GI50,U-251,33.1 µM (inactive)
same,GI50,LOX IMVI,25.9 µM (inactive)
same,GI50,OVCAR-8,33.8 µM (inactive)
same,GI50,HCC 2998,51.6 µM (inactive)
same,GI50,OVCAR-4,40.6 µM (inactive)
C[n+]1c(/C=C/c2ccc(O)c3ncccc23)[se]c2ccccc21,GI50,SK-MEL-5,7.76 µM (inactive)
same,GI50,786-0,2.99 µM (inactive)
same,GI50,NCI-H23,4.05 µM (inactive)
same,GI50,A498,11.2 µM (inactive)
same,GI50,NCI-H226,11.5 µM (inactive)
same,GI50,MDA-MB-231,0.406 µM (active)
same,GI50,IGROV-1,3 µM (inactive)
same,GI50,Hs-578T,15.7 µM (inactive)
same,GI50,CCRF-CEM,0.92 µM (active)
same,GI50,TK-10,3.1 µM (inactive)
same,GI50,SNB-75,12.1 µM (inactive)
same,GI50,EKVX,4.25 µM (inactive)
same,GI50,OVCAR-5,9.86 µM (inactive)
same,GI50,SK-MEL-28,11.4 µM (inactive)
same,GI50,SK-OV-3,5.96 µM (inactive)
same,GI50,UO-31,2.71 µM (inactive)
same,GI50,M14,4.67 µM (inactive)
same,GI50,ACHN,1.92 µM (inactive)
same,GI50,MDA-MB-435,6.34 µM (inactive)
same,GI50,SN12C,2.99 µM (inactive)
same,GI50,COLO 205,5.58 µM (inactive)
same,GI50,HOP-92,4.22 µM (inactive)
same,GI50,SK-MEL-2,4.26 µM (inactive)
same,GI50,SNB-19,4.5 µM (inactive)
same,GI50,SF-539,2.86 µM (inactive)
same,GI50,NCI-H460,2.51 µM (inactive)
same,GI50,NCI-H522,2.58 µM (inactive)
same,GI50,HT-29,4.11 µM (inactive)
same,GI50,Malme-3M,4.01 µM (inactive)
same,GI50,UACC-62,3.14 µM (inactive)
same,GI50,DU-145,4.26 µM (inactive)
same,GI50,CAKI-1,5.01 µM (inactive)
same,GI50,MDA-N,5.98 µM (inactive)
same,GI50,SF-268,4.91 µM (inactive)
same,GI50,A549,7.06 µM (inactive)
same,GI50,SF-295,8.57 µM (inactive)
same,GI50,UACC-257,2.29 µM (inactive)
same,GI50,BT-549,6.53 µM (inactive)
same,GI50,RXF 393,8.67 µM (inactive)
same,GI50,HCT-15,0.631 µM
same,GI50,HOP-62,3.3 µM (inactive)
same,GI50,MCF7,1.58 µM (inactive)
same,GI50,OVCAR-3,1.57 µM (inactive)
same,GI50,SW-620,3.98 µM (inactive)
same,GI50,MOLT-4,1.94 µM (inactive)
same,GI50,K562,5.11 µM (inactive)
same,GI50,T47D,3.2 µM (inactive)
same,GI50,RPMI-8226,5.01 µM (inactive)
same,GI50,KM12,2.48 µM (inactive)
same,GI50,HCT-116,2.58 µM (inactive)
same,GI50,NCI/ADR-RES,3.48 µM (inactive)
same,GI50,SR,1.64 µM (inactive)
same,GI50,PC-3,2.92 µM (inactive)
same,GI50,U-251,2.88 µM (inactive)
same,GI50,HL-60,2.55 µM (inactive)
same,GI50,LOX IMVI,2.33 µM (inactive)
same,GI50,OVCAR-8,2.87 µM (inactive)
same,GI50,OVCAR-4,4.2 µM (inactive)
